Assay results reported in patent publication US10669261B2, “Heteroarylhydroxypyrimidinones as agonists of the APJ receptor” (BRISTOL-MYERS SQUIBB COMPANY, priority 2015, dated 2020).

What follows are compounds tested against T1, human APJ receptor (Homo sapiens, UniProt P35414) (assay: Intracellular cAMP accumulation assay (APJ hcAMP, HTRF)). Conditions: HEK293 cells stably expressing human APJ receptor; inhibition of forskolin-mediated cAMP production; stated at end of example; read-out: Human APJ cAMP Potency Range.
T1 construct: expressed in transfected cells
T1 sequence (P35414 1-380): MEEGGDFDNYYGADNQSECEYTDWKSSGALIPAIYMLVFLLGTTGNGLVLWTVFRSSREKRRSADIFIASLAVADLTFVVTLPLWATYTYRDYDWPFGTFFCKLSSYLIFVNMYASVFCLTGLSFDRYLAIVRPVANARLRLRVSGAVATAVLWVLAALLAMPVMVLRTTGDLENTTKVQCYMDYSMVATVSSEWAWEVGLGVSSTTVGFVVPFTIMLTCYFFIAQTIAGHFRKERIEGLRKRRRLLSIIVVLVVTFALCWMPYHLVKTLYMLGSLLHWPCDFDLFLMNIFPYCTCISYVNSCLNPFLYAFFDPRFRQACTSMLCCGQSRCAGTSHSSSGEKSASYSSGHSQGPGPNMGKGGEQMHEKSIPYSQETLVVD
Type: cell-based
Protocol: Intracellular cAMP Accumulation Assay
HEK293 cells stably expressing human APJ receptor were used to assess the activity of compounds. Cultured cells were detached and resuspended in the cAMP Homogeneous Time-Resolved Fluorescence (HTRF) assay buffer (Cisbio cat; #62AM4PEJ). The assay was performed in 384-well assay plates (Perkin-Elmer; cat #6008289) according to assay protocol provided by the manufacturer. Serial dilutions of a compound together with assay buffer containing […] IBMX and 2 μM forskolin were added to each well containing 5,000 cells and incubated for 30 minutes at room temperature. Subsequently, cAMP D2 reagent was added in the lysis buffer followed by the EuK antibody (Cisbio; cat #62AM4PEJ) and incubated for 60 min. The fluorescence emission ratio was measured using fluorometer. The intracellular cAMP concentrations (compound-stimulated inhibition of forskolin-mediated cAMP production) were calculated by extrapolation from a standard curve using known cAMP concentrations. The EC50 values were obtained by fitting the data to a sigmoidal concentration-response curve with variable slope. The maximal achievable inhibition of forskolin-induced cAMP levels (Ymax) for each compound was expressed as relative percentage of inhibition attained using pyroglutamated apelin-13 ((Pyr1)apelin-13) peptide, which was set to 100%.
The examples disclosed below were tested in the APJ in vitro assays described above and were found having human APJ cyclic AMP (hcAMP) activity. The EC50 value of each compound is presented at the end of the example description.
The biological activity of the exemplified compounds of this invention determined by the assay described above is shown at the end of each example.

For `COc1cccc(OC)c1-n1c(CCC2CC2)nc(=O)c(-c2nnc(Cc3noc4ccccc34)o2)c1O` [Example 42, 5-(5-(benzo[d]isoxazol-3-ylmethyl)-1,3,4-oxadiazol-2-yl)-2-(2-cyclopropylethyl)-1-(2,6-dimethoxyphenyl)-6-hydroxypyrimidin-4(1H)-one], which EC50 is on record?
Its EC50 is 0.01 to 10 nM.

Which EC50 does the source give for `[2H]C([2H])([2H])Oc1cccc(OC([2H])([2H])[2H])c1-n1c(CCCC)nc(=O)c(-c2nnc(Cc3noc4ccccc34)o2)c1O` [Example 48, 5-(5-(Benzo[d]isoxazol-3-ylmethyl)-1,3,4-oxadiazol-2-yl)-2-butyl-1-(2,6-di[^2H3]methoxyphenyl)-6-hydroxypyrimidin-4(1H)-one] here?
Its EC50 is 0.01 to 10 nM.

Which EC50 does the source give for `CCN(CC)C(=O)Cc1nnc(-c2c(O)n(-c3c(OC)cccc3OC)c(CCC3CC3)nc2=O)o1` [Example 52, 2-(5-(2-(2-Cyclopropylethyl)-1-(2,6-dimethoxyphenyl)-6-hydroxy-4-oxo-1,4-dihydropyrimidin-5-yl)-1,3,4-oxadiazol-2-yl)-N,N-diethylacetamide] here?
The EC50 was 0.01 to 10 nM.

`COc1cccc(OC)c1-n1c(CCC2CC2)nc(=O)c(-c2nnc(CN(C)C(=O)c3ccccn3)o2)c1O` [Example 53, N-((5-(2-(2-cyclopropylethyl)-1-(2,6-dimethoxyphenyl)-6-hydroxy-4-oxo-1,4-dihydropyrimidin-5-yl)-1,3,4-oxadiazol-2-yl)methyl)-N-methylpicolinamide] was tested. Which EC50 did it give?
Its EC50 is 0.01 to 10 nM.

Same assay, conditions: Table 1; HEK293 cells stably expressing human APJ receptor; read-out: hAPJ cAMP EC50 Potency range

For `COc1cccc(OC)c1-n1c(COC(C)C)nc(=O)c(-c2nnc(Cc3ccc(Cl)cc3)o2)c1O` [Example 36, 5-{5-[(4-chlorophenyl)methyl]-1,3,4-oxadiazol-2-yl}-1-(2,6-dimethoxyphenyl)-6-hydroxy-2-[(propan-2-yloxy)methyl]-1,4-dihydropyrimidin-4-one], which EC50 is on record?
Its EC50 is 0.01 to 10 nM.

How did the EC50 turn out when `CCOCc1nc(=O)c(-c2nnc(Cc3ccc(Cl)cc3)o2)c(O)n1-c1c(CC)cccc1CC` [Example 37, 5-{5-[(4-chlorophenyl)methyl]-1,3,4-oxadiazol-2-yl}-1-(2,6-diethylphenyl)-2-(ethoxymethyl)-6-hydroxy-1,4-dihydropyrimidin-4-one] was run?
Its EC50 is 0.01 to 10 nM.

`CCOCc1nc(=O)c(-c2nnc(Cc3ccc(Cl)c(F)c3)o2)c(O)n1-c1c(OC)cccc1OC` [Example 38, 5-{5-[(4-chloro-3-fluorophenyl)methyl]-1,3,4-oxadiazol-2-yl}-1-(2,6-dimethoxyphenyl)-2-(ethoxymethyl)-6-hydroxy-1,4-dihydropyrimidin-4-one] was tested. Which EC50 did it give?
The EC50 was 0.01 to 10 nM.

For `CCOCc1nc(=O)c(-c2nnc(Cc3csc(-c4ccccc4)n3)o2)c(O)n1-c1c(OC)cccc1OC` [Example 39, 1-(2,6-dimethoxyphenyl)-2-(ethoxymethyl)-6-hydroxy-5-{5-[(2-phenyl-1,3-thiazol-4-yl)methyl]-1,3,4-oxadiazol-2-yl}-1,4-dihydropyrimidin-4-one], which EC50 is on record?
The EC50 was 10 to 100 nM.

`CCOCc1nc(=O)c(-c2nnc(Cc3ccc(Cl)cc3)o2)c(O)n1-c1c(OC)cccc1OC` [Example 40, 5-{5-[(4-chlorophenyl)methyl]-1,3,4-oxadiazol-2-yl}-1-(2,6-dimethoxyphenyl)-2-(ethoxymethyl)-6-hydroxy-1,4-dihydropyrimidin-4-one] was tested. Which EC50 did it give?
Its EC50 is 0.01 to 10 nM.

How did the EC50 turn out when `CC(C)OCc1nc(=O)c(-c2nnc(Cc3noc4ccccc34)o2)c(O)n1-c1c(C2CC2)cccc1C1CC1` [Example 41, 5-[5-(1,2-benzoxazol-3-ylmethyl)-1,3,4-oxadiazol-2-yl]-1-(2,6-dicyclopropylphenyl)-6-hydroxy-2-[(propan-2-yloxy)methyl]-1,4-dihydropyrimidin-4-one] was run?
The EC50 was 0.01 to 10 nM.

How did the EC50 turn out when `COc1cccc(OC)c1-n1c(CCC2CC2)nc(=O)c(-c2nnc(CN3CCCC3=O)o2)c1O` [Example 43, 2-(2-cyclopropylethyl)-1-(2,6-dimethoxyphenyl)-6-hydroxy-5-{5-[(2-oxopyrrolidin-1-yl)methyl]-1,3,4-oxadiazol-2-yl}-1,4-dihydropyrimidin-4-one] was run?
Its EC50 is 0.01 to 10 nM.

How did the EC50 turn out when `COc1cccc(OC)c1-n1c(CCC2CC2)nc(=O)c(-c2nnc(Cc3csc(C)n3)o2)c1O` [Example 44, 2-(2-cyclopropylethyl)-1-(2,6-dimethoxyphenyl)-6-hydroxy-5-{5-[(2-methyl-1,3-thiazol-4-yl)methyl]-1,3,4-oxadiazol-2-yl}-1,4-dihydropyrimidin-4-one] was run?
Its EC50 is 0.01 to 10 nM.

`COc1cccc(OC)c1-n1c(CCC2CC2)nc(=O)c(-c2nnc(Cc3ccc(Cl)cc3)o2)c1O` [Example 45, 5-{5-[(4-chlorophenyl)methyl]-1,3,4-oxadiazol-2-yl}-2-(2-cyclopropylethyl)-1-(2,6-dimethoxyphenyl)-6-hydroxy-1,4-dihydropyrimidin-4-one] was tested. Which EC50 did it give?
The EC50 was 0.01 to 10 nM.

For `COc1cccc(OC)c1-n1c(CCC2CC2)nc(=O)c(-c2nnc(Cn3ccccc3=O)o2)c1O` [Example 46, 2-(2-cyclopropylethyl)-1-(2,6-dimethoxyphenyl)-6-hydroxy-5-{5-[(2-oxo-1,2-dihydropyridin-1-yl)methyl]-1,3,4-oxadiazol-2-yl}-1,4-dihydropyrimidin-4-one], which EC50 is on record?
Its EC50 is 0.01 to 10 nM.

With `COc1cccc(OC)c1-n1c(CCC2CC2)nc(=O)c(-c2nnc(CN3CCOCC3=O)o2)c1O` [Example 47, 4-({5-[2-(2-cyclopropylethyl)-1-(2,6-dimethoxyphenyl)-6-hydroxy-4-oxo-1,4-dihydropyrimidin-5-yl]-1,3,4-oxadiazol-2-yl}methyl)morpholin-3-one] as the compound, how does the EC50 read?
The EC50 was 0.01 to 10 nM.

Which EC50 does the source give for `[2H]C([2H])([2H])Oc1cccc(OC([2H])([2H])[2H])c1-n1c(CCCC)nc(=O)c(-c2nnc(Cc3ccc(Cl)cc3)o2)c1O` [Example 49, 1-[2,6-bis(^2H3)methoxyphenyl]-2-butyl-5-{5-[(4-chlorophenyl)methyl]-1,3,4-oxadiazol-2-yl}-6-hydroxy-1,4-dihydropyrimidin-4-one] here?
The EC50 was 0.01 to 10 nM.

With `[2H]C([2H])([2H])Oc1cccc(OC([2H])([2H])[2H])c1-n1c(COCC)nc(=O)c(-c2nnc(Cc3noc4ccccc34)o2)c1O` [Example 50, 5-[5-(1,2-benzoxazol-3-ylmethyl)-1,3,4-oxadiazol-2-yl]-1-[2,6-bis(^2H3)methoxyphenyl]-2-(ethoxymethyl)-6-hydroxy-1,4-dihydropyrimidin-4-one] as the compound, how does the EC50 read?
Its EC50 is 0.01 to 10 nM.

`[2H]C([2H])([2H])Oc1cccc(OC([2H])([2H])[2H])c1-n1c(COCC)nc(=O)c(-c2nnc(Cc3ccc(Cl)cc3)o2)c1O` [Example 51, 1-[2,6-bis(^2H3)methoxyphenyl]-5-{5-[(4-chlorophenyl)methyl]-1,3,4-oxadiazol-2-yl}-2-(ethoxymethyl)-6-hydroxy-1,4-dihydropyrimidin-4-one] was tested. Which EC50 did it give?
The EC50 was 0.01 to 10 nM.

Which EC50 does the source give for `COc1cccc(OC)c1-n1c(CCC2CC2)nc(=O)c(-c2nnc(CN(C)C(=O)c3ccccn3)o2)c1O` [Example 54, N-({5-[2-(2-cyclopropylethyl)-1-(2,6-dimethoxyphenyl)-6-hydroxy-4-oxo-1,4-dihydropyrimidin-5-yl]-1,3,4-oxadiazol-2-yl}methyl)-N-methylpyridine-2-carboxamide] here?
The EC50 was 0.01 to 10 nM.

For `COc1cccc(OC)c1-n1c(CCC2CC2)nc(=O)c(-c2nnc(CNC(=O)c3cccc(Cl)c3)o2)c1O` [Example 55, 3-chloro-N-({5-[2-(2-cyclopropylethyl)-1-(2,6-dimethoxyphenyl)-6-hydroxy-4-oxo-1,4-dihydropyrimidin-5-yl]-1,3,4-oxadiazol-2-yl}methyl)benzamide], which EC50 is on record?
Its EC50 is 0.01 to 10 nM.

With `COc1cccc(OC)c1-n1c(CCC2CC2)nc(=O)c(-c2nnc(CNC(=O)c3cccnc3)o2)c1O` [Example 56, N-({5-[2-(2-cyclopropylethyl)-1-(2,6-dimethoxyphenyl)-6-hydroxy-4-oxo-1,4-dihydropyrimidin-5-yl]-1,3,4-oxadiazol-2-yl}methyl)pyridine-3-carboxamide] as the compound, how does the EC50 read?
Its EC50 is 0.01 to 10 nM.

How did the EC50 turn out when `COc1cccc(OC)c1-n1c(CCC2CC2)nc(=O)c(-c2nnc(CNC(=O)c3ccccc3)o2)c1O` [Example 57, N-({5-[2-(2-cyclopropylethyl)-1-(2,6-dimethoxyphenyl)-6-hydroxy-4-oxo-1,4-dihydropyrimidin-5-yl]-1,3,4-oxadiazol-2-yl}methyl)benzamide] was run?
Its EC50 is 0.01 to 10 nM.

`COc1cccc(OC)c1-n1c(CCC2CC2)nc(=O)c(-c2nnc(CNC(=O)c3ccccn3)o2)c1O` [Example 58, N-({5-[2-(2-cyclopropylethyl)-1-(2,6-dimethoxyphenyl)-6-hydroxy-4-oxo-1,4-dihydropyrimidin-5-yl]-1,3,4-oxadiazol-2-yl}methyl)pyridine-2-carboxamide] was tested. Which EC50 did it give?
Its EC50 is 0.01 to 10 nM.
